Measured values reported in article PMC7926937, “Suramin Targets the Conserved Ligand-Binding Pocket of Human Raf1 Kinase Inhibitory Protein” (Molecules, 2021).
Substitutions are numbered along the chain they refer to. pIC50, pKd: −log10 of the molar value. Where two headings read alike, the source gives them in different places.

Key:
hRKIP W173A mutant = biological target: T1, hRKIP W173A mutant (Homo sapiens, UniProt P30086, W173A); experiment: BLI assay of suramin binding to hRKIP mutant W173A
T1 construct: made in house; host or cells: E. coli
T1 sequence (P30086 1-187 W173A): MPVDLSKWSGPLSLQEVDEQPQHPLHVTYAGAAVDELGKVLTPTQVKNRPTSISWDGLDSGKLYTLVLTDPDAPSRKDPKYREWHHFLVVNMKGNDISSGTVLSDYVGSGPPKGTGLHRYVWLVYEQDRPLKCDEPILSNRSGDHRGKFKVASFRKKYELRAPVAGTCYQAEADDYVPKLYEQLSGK
Experimental: (§1) Both unlabeled and ^15N-labeled hRKIP proteins were prepared as described previously. Eight hRKIP mutants (P74L, Y81A, S109A, P111L, P112L, K113A, W173A, and Y181A) were generated by site-directed mutagenesis using the vector of pReceiver-B01a-RKIP as the template and confirmed by DNA sequencing. All protein purifications were performed at 4 °C. Protein purities were verified by polyacrylamide gel electrophoresis, and protein concentrations were measured by NanoVue (GE Heathcare Co, Boston, MA, USA).
(§2) The interaction between hRKIP and suramin was detected by using the ForteBio Octet Red system (ForteBio, Inc, San Francisco, CA, USA). The wild-type His-tagged hRKIP protein or its mutant was immobilized onto NTA reactive biosensors, and the captured biosensors were individually dipped into the wells containing various concentrations of suramin (25, 50, 100, 200, and 400 μM). The association at each suramin concentration was detected for 900 s, while the dissociation was monitored for 1800 s. The sensors loading hRKIP without suramin were used as controls to correct baseline drifts. The wells containing various concentrations of suramin without loading protein served as references. The association and dissociation responses were corrected and processed using Octet Data Analysis Software (Version 7.0, ForteBio, Inc, San Francisco, CA, USA). The interferometry data were fitted using the 1:1 Langmuir binding model.

[1] = tested on: HEK293T cells transfected with hRKIP; experiment: Viability of HEK293T cells transfected with hRKIP; type: cell-based, human
Experimental: We further explored the effects of suramin treatment on hRKIP-mediated Ras/Raf1/MEK/ERK signal pathway by detecting the phosphorylation level of ERK, which could only be activated by MEK [37]. Principally, hRKIP binding with Raf1 inhibits the phosphorylation of Raf1, thereby blocking the following ERK phosphorylation and downregulating the MAPK pathway. […] The transfected cells were then treated with 160 μM suramin. The suramin concentration was experimentally determined as the maximal tolerant concentration for cell viability (Figure 4c), which was consistent with that used usually in clinical patients. […] As a result, the free Raf1 kinase was phosphorylated and the Ras/Raf1/MEK/ERK pathway was promoted with an enhanced phosphorylation level of the following ERK kinase.
Figure 4 Effects of suramin treatment on hRKIP-mediated Ras/Raf1/MEK/ERK pathway in HEK293 cells (a,b) Western blot analysis for the effect of suramin treatment on hRKIP-mediated ERK phosphorylation;(c) Effect of suramin treatment on viabilities of HEK293T cells transfected with hRKIP. (d,e) Western blot analysis for the effect of suramin on the ERK phosphorylation of HEK293T cell. * p <0.1; *** p <0.001; **** p <0.0001, n = 3 for each group.

hRKIP P112L mutant = biological target: T2, hRKIP P112L mutant (Homo sapiens, UniProt P30086, P112L); experiment: BLI assay of suramin binding to hRKIP mutant P112L
T2 construct: made in house; host or cells: E. coli
T2 sequence (P30086 1-187 P112L): T1 sequence (P30086 1-187 W173A) with P112L, A173W
Experimental: as §1, §2

hRKIP S109A mutant = biological target: T3, hRKIP S109A mutant (Homo sapiens, UniProt P30086, S109A); experiment: BLI assay of suramin binding to hRKIP mutant S109A
T3 construct: made in house; host or cells: E. coli
T3 sequence (P30086 1-187 S109A): T1 sequence (P30086 1-187 W173A) with S109A, A173W
Experimental: as §1, §2

hRKIP [2] = biological target: T4, hRKIP (Homo sapiens, UniProt P30086); experiment: BLI assay of ligand binding to wild-type hRKIP
T4 construct: made in house; host or cells: E. coli
Experimental: as §1, §2

hRKIP Y81A mutant = biological target: T5, hRKIP Y81A mutant (Homo sapiens, UniProt P30086, Y81A); experiment: BLI assay of suramin binding to hRKIP mutant Y81A
T5 construct: made in house; host or cells: E. coli
T5 sequence (P30086 1-187 Y81A): T1 sequence (P30086 1-187 W173A) with Y81A, A173W
Experimental: as §1, §2

hRKIP P74L mutant = biological target: T6, hRKIP P74L mutant (Homo sapiens, UniProt P30086, P74L); experiment: BLI assay of suramin binding to hRKIP mutant P74L
T6 construct: made in house; host or cells: E. coli
T6 sequence (P30086 1-187 P74L): T1 sequence (P30086 1-187 W173A) with P74L, A173W
Experimental: as §1, §2

[3] = tested on: phosphorylation level of p-ERK in HEK293T cell; experiment: ERK phosphorylation (Western blot) in HEK293T cells; type: cell-based, human; settings: 160 μM suramin
Experimental: (§3) Human HEK293T cells were used as control group. HEK293T cells were first transfected with the exogenous hRKIP gene (the hRKIP-treated group), then the hRKIP transfected cells were serum starved overnight (10 h) and then incubated with 160 μM suramin for 30 min before EGF stimulation (the hRKIP-suramin-treated group). The transfection process was performed as following: 4 μg of pcDNA3.0-hRKIP was mixed with 75 μL lipotap (Beyotime, China), and the mixture was incubated with HEK293T cell in the dulbecco’s modified eagle medium (DMEM) with 100 units/mL penicillin (Sagon, Shanghai, China), 100 μg/mL streptomycin (Sagon, Shanghai, China) and 10% fetal bovine serum (Hyclone, Logan, UT, USA) for 6 h. Then the lipotap-DNA mixture was removed, and the transfected cell was further cultured in fresh medium. For all the three groups, the cells were cultured in DMEM supplemented with serum and […] at 37 °C. At 70% confluency, 10 ng/mL EGF was used to stimulate the Ras/Raf/MEK/ERK signal pathway for 5 min. The reaction was stopped by phosphate-buffered saline. […]
(§4) Cellular assay data are presented as mean ± standard deviation (SD). […] Statistical significances were determined using Student’s t-test. p < 0.05 was considered statistically significant.

[4] = tested on: hRKIP-mediated Ras/Raf1/MEK/ERK signal pathway; experiment: ERK phosphorylation (Western blot) in hRKIP-transfected HEK293T cells; type: cell-based, human; settings: 160 µM suramin, 30 min before EGF stimulation, compared with no suramin treatment
Experimental: as §3, §4

hRKIP Y181A mutant = biological target: T7, hRKIP Y181A mutant (Homo sapiens, UniProt P30086, Y181A); experiment: BLI assay of suramin binding to hRKIP mutant Y181A
T7 construct: made in house; host or cells: E. coli
T7 sequence (P30086 1-187 Y181A): T1 sequence (P30086 1-187 W173A) with A173W, Y181A
Experimental: as §1, §2

hRKIP K113A mutant = biological target: T8, hRKIP K113A mutant (Homo sapiens, UniProt P30086, K113A); experiment: BLI assay of suramin binding to hRKIP mutant K113A
T8 construct: made in house; host or cells: E. coli
T8 sequence (P30086 1-187 K113A): T1 sequence (P30086 1-187 W173A) with K113A, A173W
Experimental: as §1, §2

HEK293T cell = experiment: MTS experiments on HEK293T cells; type: cell-based; settings: Homo sapiens, HEK-293T
hRKIP [5] = biological target: T4, hRKIP; parameters: method as in PMID 30137201; settings: PE binding to hRKIP ref 34; cited from earlier work

T4 sequence (P30086 whole entry): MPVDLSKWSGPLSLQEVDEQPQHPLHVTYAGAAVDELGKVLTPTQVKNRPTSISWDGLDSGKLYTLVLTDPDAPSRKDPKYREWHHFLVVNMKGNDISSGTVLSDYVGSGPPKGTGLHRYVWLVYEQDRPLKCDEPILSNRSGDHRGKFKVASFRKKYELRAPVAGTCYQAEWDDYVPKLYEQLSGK

Cc1ccc(C(=O)Nc2ccc(S(=O)(=O)O)c3cc(S(=O)(=O)O)cc(S(=O)(=O)O)c23)cc1NC(=O)c1cccc(NC(=O)Nc2cccc(C(=O)Nc3cc(C(=O)Nc4ccc(S(=O)(=O)O)c5cc(S(=O)(=O)O)cc(S(=O)(=O)O)c45)ccc3C)c2)c1 [suramin, Suramin]
pKd (hRKIP W173A mutant): 4.11
kobs (hRKIP W173A mutant): 0.000553 s⁻¹
koff (hRKIP W173A mutant): 0.000241 s⁻¹
kon (hRKIP W173A mutant): 3.12 M⁻¹ s⁻¹
maximal tolerant concentration for cell viability [1]: 160 µM
pKd (hRKIP P112L mutant; P112L mutant): 4.69
kobs (hRKIP P112L mutant; P112L mutant): 0.00037 s⁻¹
koff (hRKIP P112L mutant; P112L mutant): 0.000166 s⁻¹
kon (hRKIP P112L mutant; P112L mutant): 8.14 M⁻¹ s⁻¹
change of affinity of suramin relative to hRKIP (hRKIP P112L mutant; P112L mutant vs wild type): slightly increased affinity
pKd (hRKIP S109A mutant; S109A mutant): 4.59
kobs (hRKIP S109A mutant; S109A mutant): 0.00295 s⁻¹
koff (hRKIP S109A mutant; S109A mutant): 0.00018 s⁻¹
kon (hRKIP S109A mutant; S109A mutant): 6.93 M⁻¹ s⁻¹
decrease of binding affinity of suramin relative to hRKIP (hRKIP S109A mutant; S109A mutant vs wild type): around 10%
kobs (hRKIP [2]; BLI, wild-type RKIP): 0.00368 s⁻¹
pKd (hRKIP [2]; BLI, wild-type RKIP, 1:1 Langmuir binding model): 4.62
koff (hRKIP [2]; BLI, wild-type RKIP, read-out: koff): 0.000207 s⁻¹
kon (hRKIP [2]; BLI, wild-type RKIP, read-out: kon): 8.69 M⁻¹ s⁻¹
koff (hRKIP [2]; BLI, wild-type hRKIP, read-out: dissociation rate (koff)): 0.0002 s⁻¹
higher affinity for binding to hRKIP compared with PE (hRKIP [2]; ratio of KD values, PE as native substrate): about 370 fold
pKd (hRKIP Y81A mutant; Y81A mutant): 4.53
kobs (hRKIP Y81A mutant; Y81A mutant): 0.000291 s⁻¹
koff (hRKIP Y81A mutant; Y81A mutant): 0.000158 s⁻¹
kon (hRKIP Y81A mutant; Y81A mutant): 5.31 M⁻¹ s⁻¹
decrease of affinity of suramin relative to hRKIP (hRKIP Y81A mutant; Y81A mutant vs wild type): around 20%
pKd (hRKIP P74L mutant; P74L mutant): 4.43
kobs (hRKIP P74L mutant; P74L mutant): 0.000367 s⁻¹
koff (hRKIP P74L mutant; P74L mutant): 0.000275 s⁻¹
kon (hRKIP P74L mutant; P74L mutant): 7.39 M⁻¹ s⁻¹
decrease of affinity of suramin relative to hRKIP (hRKIP P74L mutant; P74L mutant vs wild type): more than 30%
enhancement of phosphorylation level of p-ERK [3]: around 48%
increase of ERK phosphorylation level [4]: around 3 times
pKd (hRKIP Y181A mutant; Y181A mutant): 3.15
kobs (hRKIP Y181A mutant; Y181A mutant): 0.000177 s⁻¹
koff (hRKIP Y181A mutant; Y181A mutant): 0.000156 s⁻¹
kon (hRKIP Y181A mutant; Y181A mutant): 0.22 M⁻¹ s⁻¹
decrease of affinity of suramin relative to hRKIP (hRKIP Y181A mutant; Y181A mutant vs wild type): more than 75%
pKd (hRKIP K113A mutant): 4.06
kobs (hRKIP K113A mutant): 0.00038 s⁻¹
koff (hRKIP K113A mutant): 0.000295 s⁻¹
kon (hRKIP K113A mutant): 3.38 M⁻¹ s⁻¹
pIC50 (HEK293T cell): 3.32

NCCOP(=O)(O)O [PE, oO-phosphorylethanolamine]
kon (hRKIP [2]; BLI, wild-type RKIP): 3.0 M⁻¹ s⁻¹
dissociation rate (koff) (hRKIP [2]; BLI, wild-type hRKIP): 0.0264 s⁻¹
pKd (hRKIP [5]): 2.06
